“And” between values parts separate entries of the source, which are not always exact repeats. Identical values can stand only once. Inconclusive results and toxic doses are left out. Rule for the calls: active = survival T/C of 150% or more; inactive = T/C below 125% in these data.
Test system: P388 leukemia ip, CD2F1 mice, survival T/C
Assay: NCI In Vivo Anticancer Drug Screen. Data for tumor model P388 Leukemia (intraperitoneal) in CD2F1 (CDF1) mice
Details: endpoint: median survival time, higher = longer survival
How it was run: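 Mice carrying the transplanted tumor received test compound or vehicle. Survival was recorded in each group, and the value is the treated-group measurement divided by that of the vehicle-treated control group.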

[1] = dose: 60.0 mg/kg/injection, schedule: Q01DX005 (ip), vehicle: saline with Tween-80
[2] = dose: 120.0 mg/kg/injection, schedule: Q01DX005 (ip), vehicle: saline with Tween-80
[3] = dose: 240.0 mg/kg/injection, schedule: Q01DX005 (ip), vehicle: saline with Tween-80
[4] = dose: 100.0 mg/kg/injection, schedule: Q04DX003 (ip), vehicle: Klucel (hydroxypropylcellulose) (HPC)
[5] = dose: 200.0 mg/kg/injection, schedule: Q04DX003 (ip), vehicle: Klucel (hydroxypropylcellulose) (HPC)
[6] = dose: 50.0 mg/kg/injection, schedule: Q01DX005 (ip), vehicle: Klucel (hydroxypropylcellulose) (HPC)
[7] = dose: 100.0 mg/kg/injection, schedule: Q01DX005 (ip), vehicle: Klucel (hydroxypropylcellulose) (HPC)
[8] = dose: 200.0 mg/kg/injection, schedule: Q01DX005 (ip), vehicle: Klucel (hydroxypropylcellulose) (HPC)
[9] = dose: 50.0 mg/kg/injection, schedule: Q01DX005 (ip), vehicle: saline
[10] = dose: 100.0 mg/kg/injection, schedule: Q01DX005 (ip), vehicle: saline
[11] = dose: 50.0 mg/kg/injection, schedule: Q01DX009 (ip), vehicle: Klucel (hydroxypropylcellulose) (HPC)
[12] = dose: 50.0 mg/kg/injection, schedule: Q01DX009 (ip), vehicle: saline
[13] = dose: 100.0 mg/kg/injection, schedule: Q01DX009 (ip), vehicle: saline
[14] = dose: 6.25 mg/kg/injection, schedule: Q01DX009 (ip), vehicle: Klucel (hydroxypropylcellulose) (HPC)
[15] = dose: 12.5 mg/kg/injection, schedule: Q01DX009 (ip), vehicle: Klucel (hydroxypropylcellulose) (HPC)
[16] = dose: 25.0 mg/kg/injection, schedule: Q01DX009 (ip), vehicle: Klucel (hydroxypropylcellulose) (HPC)
[17] = dose: 100.0 mg/kg/injection, schedule: Q04DX002 (ip), vehicle: saline with Tween-80
[18] = dose: 200.0 mg/kg/injection, schedule: Q04DX002 (ip), vehicle: saline with Tween-80
[19] = dose: 400.0 mg/kg/injection, schedule: Q04DX002 (ip), vehicle: saline with Tween-80

Measured: T/C

O=C(Nc1ccc(CSc2ccc(Cl)cc2)o1)N1CCOCC1
inactive: dose: 50.0 mg/kg/injection, schedule: Q01DX005 (ip), vehicle: saline with Tween-80 107 % of control | dose: 100.0 mg/kg/injection, schedule: Q01DX005 (ip), vehicle: saline with Tween-80 99 % of control | dose: 200.0 mg/kg/injection, schedule: Q01DX005 (ip), vehicle: saline with Tween-80 98 % of control

COc1ccccc1N=Nc1c(-c2cccs2)nn(C(=S)SC)c1C(F)(F)F
inactive: [1] 92 % of control | [2] 97 % of control | [3] 97 % of control

CCN(CC)C1CC(C)(O)Cc2cc3c(c(O)c21)C(=O)c1c(O)cc2c(c1C3=O)OC1OC2(C)C(O)C(N(C)C)C1O (centres undefined)
inactive: dose: 50.0 mg/kg/injection, schedule: Q01DX009 (ip), vehicle: other 93 % of control

COc1ccc(OCC(O)CN2CCN(c3ccc(Cl)cc3)CC2)cc1 (centres undefined)
inactive: dose: 100.0 mg/kg/injection, schedule: Q01DX009 (ip), vehicle: saline with Tween-80 99 % of control | [4] 100 % of control | dose: 200.0 mg/kg/injection, schedule: Q01DX009 (ip), vehicle: saline with Tween-80 101 % of control | [5] 100 % of control | dose: 400.0 mg/kg/injection, schedule: Q01DX009 (ip), vehicle: saline with Tween-80 92 % of control

CCN(CC)c1ccc(Cc2ccc(N(CC)CC)c3cccnc23)c2ncccc12
inactive: [6] 100 % of control | [7] 99 % of control | [8] 98 % of control

CCN(CC)CCCC(C)Nc1c(C)cnc2cc(Cl)c(C)cc12 (centres undefined)
inactive: [9] 103 % of control | [10] 100 % of control

COc1ccc(N=c2nc3n4c(c(Br)cc(Br)c4n2)NC(C(Br)(Br)Br)=N3)cc1
inactive: [1] 90 % of control | [2] 92 % of control | [3] 100 % of control

Cc1s\c(=N/N=N/N=c2\sc(C)c(C)n2Cc2ccccc2)n(Cc2ccccc2)c1C
inactive: [1] 103 % of control | [2] 97 % of control | [3] 103 % of control

O=CNNC(=O)C(Cl)Cl
inactive: [11] 107 % of control | dose: 100.0 mg/kg/injection, schedule: Q01DX009 (ip), vehicle: Klucel (hydroxypropylcellulose) (HPC) 107 % of control | dose: 200.0 mg/kg/injection, schedule: Q01DX009 (ip), vehicle: Klucel (hydroxypropylcellulose) (HPC) 112 % of control

CC(=O)Oc1c([N+](=O)[O-])cccc1[N+](=O)[O-]
inactive: dose: 3.13 mg/kg/injection, schedule: Q01DX009 (ip), vehicle: distilled water + Tween-80 111 % of control | dose: 6.25 mg/kg/injection, schedule: Q01DX009 (ip), vehicle: clinical formulation 100 % of control | dose: 6.25 mg/kg/injection, schedule: Q01DX009 (ip), vehicle: distilled water + Tween-80 100 % of control and 112 % of control | dose: 12.5 mg/kg/injection, schedule: Q01DX009 (ip), vehicle: clinical formulation 103 % of control | dose: 12.5 mg/kg/injection, schedule: Q01DX009 (ip), vehicle: distilled water + Tween-80 107 % of control | dose: 25.0 mg/kg/injection, schedule: Q01DX009 (ip), vehicle: clinical formulation 108 % of control | dose: 25.0 mg/kg/injection, schedule: Q01DX009 (ip), vehicle: distilled water + Tween-80 107 % of control | dose: 50.0 mg/kg/injection, schedule: Q01DX009 (ip), vehicle: distilled water + Tween-80 109 % of control and 115 % of control | dose: 100.0 mg/kg/injection, schedule: Q01DX009 (ip), vehicle: distilled water + Tween-80 96 % of control

O=C1C(Cl)=C(Nc2cccc3ccccc23)C(=O)C(Cl)=C1Nc1cccc2ccccc12
inactive: [6] 95 % of control | [7] 88 % of control | [8] 88 % of control

C[N+](C)(C)c1ncnc2c1ncn2C1CC(O)C(CO)O1 (centres undefined)
inactive: [9] 95 % of control | [10] 98 % of control | dose: 200.0 mg/kg/injection, schedule: Q01DX005 (ip), vehicle: saline 101 % of control

CC(C)(C)C1C/C(=C2\COC(=O)C2=O)NN1c1ccccc1 (centres undefined)
inactive: [12] 92 % of control | [13] 91 % of control | dose: 200.0 mg/kg/injection, schedule: Q01DX009 (ip), vehicle: saline 91 % of control

O=C1CC2(CCCCC2)CC(=O)N1c1ccc(O)c(CN(Cc2ccccc2)Cc2ccccc2)c1
inactive: [4] 90 % of control | [5] 92 % of control | dose: 400.0 mg/kg/injection, schedule: Q04DX003 (ip), vehicle: Klucel (hydroxypropylcellulose) (HPC) 93 % of control

CCN(CC)c1ccc2cc3ccc(=[N+](CC)CC)cc-3oc2c1
inactive: dose: 1.0 mg/kg/injection, schedule: Q01DX009 (ip), vehicle: saline 109 % of control

O=P1(N(CCCl)CCCl)Nc2cccc3cccc(c23)N1
inactive: [14] 110 % of control and 111 % of control | [15] 103 % of control and 114 % of control | [16] 102 % of control and 119 % of control | [11] 120 % of control

O=C1C2=C(OCCO2)C(=O)C2=C1OCCO2
inactive: [17] 99 % of control | [18] 111 % of control | [19] 106 % of control

CCCCCCCCCCCCCCCCCCSC1=CC(=O)C(OC)=C(OC)C1=O
inactive: dose: 3.13 mg/kg/injection, schedule: Q01DX009 (ip), vehicle: Klucel (hydroxypropylcellulose) (HPC) 92 % of control | [14] 100 % of control | [15] 100 % of control | [16] 92 % of control | [11] 97 % of control

COC(=O)c1[nH]c(=O)c(C#N)c(C(=O)OC)c1C(=O)c1ccccc1
inactive: [1] 99 % of control | [2] 99 % of control | [3] 92 % of control

C[N+](C)(N)Cc1nc(-c2ccc(Cl)cc2)no1
inactive: [12] 98 % of control | [13] 93 % of control

COC(=O)C1=C(O)C(C(=O)OC)C2C(C(=O)OC)=C(O)C(C(=O)OC)C12 (centres undefined)
inactive: [6] 97 % of control | [7] 103 % of control | [8] 92 % of control

O=C1CS(=O)(=O)C(c2cccnc2)N1CCN1C(=O)CS(=O)(=O)C1c1cccnc1 (centres undefined)
inactive: [17] 97 % of control | [18] 93 % of control | [19] 92 % of control

Brc1cccc(C(Nc2nncs2)Nc2nncs2)c1
inactive: dose: 50.0 mg/kg/injection, schedule: Q04DX002 (ip), vehicle: saline with Tween-80 91 % of control | [17] 92 % of control and 95 % of control | [18] 100 % of control and 111 % of control | [19] 124 % of control

C=C(CN(C)C)C(=O)c1cc(C)ccc1C
inactive: dose: 0.93 mg/kg/injection, schedule: Q01DX005 (ip), vehicle: saline 100 % of control | dose: 1.87 mg/kg/injection, schedule: Q01DX005 (ip), vehicle: saline 100 % of control | dose: 3.75 mg/kg/injection, schedule: Q01DX005 (ip), vehicle: saline 98 % of control

CCC12CCCN3CCc4c(n(c5ccc(Br)cc45)C(=O)/C(=N\O)C1)C32 (centres undefined)
inactive: [1] 101 % of control | [2] 97 % of control | [3] 97 % of control

Nc1nc2ncc(CN(C(=O)CCCl)c3ccc(C(=O)NC(CCC(=O)O)C(=O)O)cc3)nc2c(=O)[nH]1 (centres undefined)
inactive: dose: 50.0 mg/kg/injection, schedule: Q01DX009 (ip), vehicle: alkali diluted with saline 100 % of control | dose: 100.0 mg/kg/injection, schedule: Q01DX009 (ip), vehicle: alkali diluted with saline 108 % of control | dose: 200.0 mg/kg/injection, schedule: Q01DX009 (ip), vehicle: alkali diluted with saline 101 % of control

Source: PubChem BioAssay AID330 (DTP/NCI, 2004)
